Measured values taken from US6737383B1, “Herbicidal oxadiazolidines” (priority 1999, dated 2004).

Experiments:
corn = experiment: Test C postemergence corn; assay type: in vivo, Zea mays; conditions: 0 to 100 scale, 0 no effect, 100 complete control
Method in brief: (§1)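 Activity is expressed as percent-style visual control, 0 (no effect) to 100 (complete control), assessed approximately 14 to 21 days after application, relative to untreated plants. Application was postemergence, using a non-phytotoxic solvent formulation with surfactant.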

deadnettle = experiment: Test E deadnettle; assay type: in vivo, Lamium amplexicaule; conditions: Preemergence
wild mustard = experiment: Test E wild mustard; assay type: in vivo, Sinapis arvensis; conditions: Preemergence
galium [1] = experiment: Test E galium; assay type: in vivo, Galium aparine; conditions: Preemergence
kochia = experiment: Test E kochia; assay type: in vivo, Kochia scoparia; conditions: Postemergence; for Plant response rating, Kochia: 0 to 100 scale
Protocol: (§2) Compounds evaluated in this test were formulated in a non-phytotoxic solvent mixture which included a surfactant and applied to plants that were in the 1- to 4-leaf stage (postemergence application). A mixture of sandy loam soil and greenhouse potting mix in a 60:40 ratio was used for the postemergence test.
(§3) Plantings of these crops and weed species were adjusted to produce plants of appropriate size for the postemergence test. All plant species were grown using normal greenhouse practices. Crop and weed species include annual bluegrass (Poa annua), blackgrass (Alopecurus myosuroides), black nightshade (Solanum nigra), chickweed (Stellaria media), common poppy (Papaver rhoeas), deadnettle (Lamium amplexicaule), downy brome (Bromus tectorum), field violet (Viola arvensis), galium (Galium aparine), green foxtail (Setaria viridis), Italian ryegrass (Lolium multiflorum), jointed goatgrass (Aegilops cylindrica), kochia (Kochia scoparia), lambsquarters (Chenopodium album), littleseed canarygrass (Phalaris minor), rape (Brassica napus), redroot pigweed (Amaranthus retroflexus), Russian thistle (Salsola kali), scentless chamomile (Matricaria inodora), spring barley (Hordeum vulgare), sugar beet (Beta vulgaris), sunflower (Helianthus annuus), ivyleaf speedwell (Veronica hederaefolia), spring wheat (Triticum aestivum), winter wheat (Triticum aestivum), wild buckwheat (Polygonum convolvulus), wild mustard (Sinapis arvensis), wild oat (Avena fatua), windgrass (Apera spica-venti) and winter barley (Hordeum vulgare).
(§4) Treated plants and untreated controls were maintained in a greenhouse for approximately 21 to 28 days, after which all treated plants were compared to untreated controls and visually evaluated. […] A dash response (-) means no test result.

chickweed = experiment: Test E chickweed; assay type: in vivo, Stellaria media; conditions: Postemergence; for Plant response rating, Chickweed: 0 to 100 scale
Protocol: as §2, §3, §4

large crabgrass = experiment: Test D large crabgrass; assay type: in vivo, Digitaria sanguinalis; conditions: Postemergence, 0 to 100 scale
Alexandergrass = experiment: Test D Alexandergrass; assay type: in vivo, Brachiaria plantaginea; conditions: Postemergence, 0 to 100 scale
spring wheat = experiment: Test E spring wheat; assay type: in vivo, Triticum aestivum; conditions: Postemergence; for Plant response rating, Spring Wheat: 0 to 100 scale
Method in brief: (§5)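 Visual evaluation versus untreated controls after about 21 to 28 days in the greenhouse. Compound was in a surfactant-containing non-phytotoxic solvent; postemergence plants were treated at the 1- to 4-leaf stage, grown in a 60:40 sandy loam and potting mix blend.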

winter barley = experiment: Test E winter barley; assay type: in vivo, Hordeum vulgare; conditions: Postemergence; for Plant response rating, Barley (winter): 0 to 100 scale
Method in brief: as §5

lambsquarters = experiment: Test E lambsquarters; assay type: in vivo, Chenopodium album; conditions: Postemergence; for Plant response rating Lambsquarters: 0 to 100 scale
Protocol: as §2, §3, §4

surinam grass = experiment: Test C postemergence surinam grass; assay type: in vivo, Brachiaria decumbens; conditions: 0 to 100 scale, 0 no effect, 100 complete control
Protocol: (§6) Compounds evaluated in this test were formulated in a non-phytotoxic solvent mixture which included a surfactant and applied to plants that were grown for various periods of time before treatment (postemergence application). A mixture of sandy loam soil and greenhouse potting mix in a 60:40 ratio was used for the postemergence test.
(§7) Plantings of these crops and weed species were adjusted to produce plants of appropriate size for the postemergence test. All plant species were grown using normal greenhouse practices. Crop and weed species include arrowleaf sida (Sida rhombifolia), barnyardgrass (Echinochloa crus-galli), cocklebur (Xanthium strumarium), common ragweed (Ambrosia elatior), corn (Zea mays), cotton (Gossypium hirsutum), eastern black nightshade (Solanum ptycanthum), fall panicum (Panicum dichotomiflorum), field bindweed (Convolvulus arvensis), giant foxtail (Setaria faberii), hairy beggarticks (Bidens pilosa), ivyleaf morningglory (Ipomoea hederacea), johnsongrass (Sorghum halepense), ladysthumb smartweed (Polygonum persicaria), lambsquarters (Chenopodium album), large crabgrass (Digitaria sanguinalis), purple nutsedge (Cyperus rotundus), redroot pigweed (Amaranthus retroflexus), soybean (Glycine max), surinam grass (Brachiaria decumbens), velvetleaf (Abutilon theophrasti) and wild poinsettia (Euphorbia heterophylla).
(§8) Treated plants and untreated controls were maintained in a greenhouse for approximately 14, to 21 days, after which all treated plants were compared to untreated controls and visually evaluated. Plant response ratings, summarized in Table C, were based upon a 0 to 100 scale where 0 was no effect and 100 was complete control. A dash response (−) means no test result.

field violet = experiment: Test E field violet; assay type: in vivo, Viola arvensis; conditions: Postemergence; for Plant response rating, Field violet: 0 to 100 scale
Method in brief: as §5

fall panicum = experiment: Test C postemergence fall panicum; assay type: in vivo, Panicum dichotomiflorum; conditions: 0 to 100 scale, 0 no effect, 100 complete control
Method in brief: as §1

galium [2] = experiment: Test E galium; assay type: in vivo, Galium aparine; conditions: Postemergence; for Plant response rating, Galium: 0 to 100 scale
Protocol: […] A mixture of sandy loam soil and greenhouse potting mix in a 60:40 ratio was used for the postemergence test.
as §3, §4

velvetleaf = experiment: Test C postemergence velvetleaf; assay type: in vivo, Abutilon theophrasti; conditions: 0 to 100 scale, 0 no effect, 100 complete control
Protocol: as §6, §7, §8

[3] = Rate 500 g/ha, 0 to 100 scale where 0 is no effect and 100 is complete control
[4] = Rate 125 g/ha, 0 to 100 scale (0 no effect, 100 complete control)
[5] = Rate 125 g/ha, 0 is no effect, 100 is complete control
[6] = Rate 250 g/ha, 0 to 100 scale where 0 is no effect and 100 is complete control
[7] = Rate 500 g/ha, 0 is no effect, 100 is complete control
[8] = Rate 16 g/ha, 0 no injury, 100 complete control
[9] = Rate 32 g/ha, 0 no injury, 100 complete control
[10] = Rate 64 g/ha, 0 no injury, 100 complete control
[11] = Rate 125 g/ha, 0 no injury, 100 complete control

CC(C)N(C(=O)n1oc(=O)n(C2CC2)c1=O)c1ccc(F)cc1 [Compound 242]
Plant response rating, Corn (corn; Rate 140 g/ha): 0
Plant response rating, Corn (corn; Rate 280 g/ha): 0
Plant response rating, Corn (corn; Rate 560 g/ha): 0
Plant response rating, Corn (corn; Rate 1120 g/ha): 20
Deadnettle plant response rating (0 to 100 scale) (deadnettle; Rate 250 g/ha): 70
Plant response rating, Deadnettle (deadnettle; [3]): 100
Plant response rating, Wild mustard (wild mustard; [4]): 65
Wild mustard plant response rating (0 to 100 scale) (wild mustard; Rate 250 g/ha): 65
Plant response rating, Wild mustard (wild mustard; [3]): 70
Plant response rating, Galium (galium [1]; [4]): 0
Galium plant response rating (0 to 100 scale) (galium [1]; Rate 250 g/ha): 100
Plant response rating, Galium (galium [1]; [3]): 100
Plant response rating, Kochia (kochia; Rate 62 g/ha): 20
Plant response rating, Kochia (kochia; [5]): 60
Kochia plant response rating (kochia; [6]): 0
Plant response rating, Kochia (kochia; [7]): 20
Plant response rating, Chickweed (chickweed; Rate 62 g/ha): 0
Plant response rating, Chickweed (chickweed; [5]): 30
Chickweed plant response rating (chickweed; [6]): 0
Plant response rating, Chickweed (chickweed; [7]): 50
Plant response rating, Large crabgrass (large crabgrass; [8]): 0
Plant response rating, Large crabgrass (large crabgrass; [9]): 100
Plant response rating, Large crabgrass (large crabgrass; [10]): 100
Plant response rating, Large crabgrass (large crabgrass; [11]): 100
Plant response rating, Large crabgrass (large crabgrass; Rate 250 g/ha): 100
Plant response rating, Alexandergrass (Alexandergrass; [8]): 0
Plant response rating, Alexandergrass (Alexandergrass; [9]): 50
Plant response rating, Alexandergrass (Alexandergrass; [10]): 90
Plant response rating, Alexandergrass (Alexandergrass; [11]): 100
Plant response rating, Alexandergrass (Alexandergrass; Rate 250 g/ha): 100
Plant response rating, Spring Wheat (spring wheat; Rate 62 g/ha): 15
Plant response rating, Spring Wheat (spring wheat; [5]): 20
Spring Wheat plant response rating (spring wheat; [6]): 10
Plant response rating, Spring Wheat (spring wheat; [7]): 20
Plant response rating, Barley (winter) (winter barley; Rate 62 g/ha): 20
Plant response rating, Barley (winter) (winter barley; [5]): 0
Barley (winter) plant response rating (winter barley; [6]): 10
Plant response rating, Barley (winter) (winter barley; [7]): 20
Plant response rating Lambsquarters (lambsquarters; Rate 62 g/ha): 10
Plant response rating Lambsquarters (lambsquarters; [5]): 0
Lambsquarters plant response rating (lambsquarters; [6]): 0
Plant response rating Lambsquarters (lambsquarters; [7]): 0
Plant response rating, Surinam grass (surinam grass; Rate 140 g/ha): 0
Plant response rating, Surinam grass (surinam grass; Rate 280 g/ha): 40
Plant response rating, Surinam grass (surinam grass; Rate 560 g/ha): 85
Plant response rating, Surinam grass (surinam grass; Rate 1120 g/ha): 90
Plant response rating, Field violet (field violet; Rate 62 g/ha): 30
Plant response rating, Field violet (field violet; [5]): 60
Field violet plant response rating (field violet; [6]): 0
Plant response rating, Field violet (field violet; [7]): 40
Plant response rating Fall panicum (fall panicum; Rate 140 g/ha): 30
Plant response rating Fall panicum (fall panicum; Rate 280 g/ha): 85
Plant response rating Fall panicum (fall panicum; Rate 560 g/ha): 90
Plant response rating Fall panicum (fall panicum; Rate 1120 g/ha): 90
Plant response rating, Galium (galium [2]; Rate 62 g/ha): 0
Plant response rating, Galium (galium [2]; [5]): 20
Galium plant response rating (galium [2]; [6]): 30
Plant response rating, Galium (galium [2]; [7]): 40
Plant response rating, Velvetleaf (velvetleaf; Rate 140 g/ha): 0
Plant response rating, Velvetleaf (velvetleaf; Rate 280 g/ha): 0
Plant response rating, Velvetleaf (velvetleaf; Rate 560 g/ha): 40
Plant response rating, Velvetleaf (velvetleaf; Rate 1120 g/ha): 60

CC(C)N(C(=O)n1oc(=O)n(C2CCCCCC2)c1=O)c1ccc(F)cc1F [Compound 342]
Plant response rating, Large crabgrass (large crabgrass; [8]): 0
Plant response rating, Large crabgrass (large crabgrass; [9]): 0
Plant response rating, Large crabgrass (large crabgrass; [10]): 40
Plant response rating, Large crabgrass (large crabgrass; [11]): 100
Plant response rating, Large crabgrass (large crabgrass; Rate 250 g/ha): 100
Plant response rating, Alexandergrass (Alexandergrass; [8]): 0
Plant response rating, Alexandergrass (Alexandergrass; [9]): 0
Plant response rating, Alexandergrass (Alexandergrass; [10]): 0
Plant response rating, Alexandergrass (Alexandergrass; [11]): 70
Plant response rating, Alexandergrass (Alexandergrass; Rate 250 g/ha): 80
